Assay results: patent US20210355116A1, “METHODS OF PRODUCING NARONAPRIDE TRIHYDRATE” (Renexxion, LLC, priority 2018, published 2021)
Where a name gives a salt, the structure may show the parent alone. Read-outs that look alike come from different tables or passages of the source.

How the values were obtained:
[1] = Stability of the trihydrate form stored in bulk in a GMP storage facility; format: physicochemical; settings: room temperature, RH >30%, up to 11 years
Procedure: The trihydrate form was evaluated for stability with regard to purity and strength over a time period of up to 11 years, by storing it in a GMP facility under controlled conditions of temperature and relative humidity (temperature=room temperature and relative humidity >30%).

[2] = Bulk stability under stressed conditions, one or two weeks; format: physicochemical; settings: all temperatures and humidities tested, one week or two weeks
Procedure: Bulk Stability Under Stressed Conditions: About 20-30 mg of the trihydrate form of the dihydrochloride salt was weighed into HPLC vials and stressed at 25° C. and 60% relative humidity (open), 40° C. and 75% relative humidity (open), and 60° C. (closed) for one week and for two weeks.

[3] = Bulk stability in very high humidity, one week; format: physicochemical
Procedure: Bulk Stability in Very High Humidity: The trihydrate form of the dihydrochloride salt was stressed at 25° C. and 97% relative humidity (open), 40° C. and 96% relative humidity (open), and 60° C. and 96% relativity humidity (open) for one week.

[4] = Dehydration profile by thermographic analysis (TGA); format: physicochemical; settings: 25° C. to 250° C.
Procedure: Thermographic analysis (TGA) curves were generated for the anhydrate and trihydrate using a Perkin Elmer TGA-7. Three to five milligram samples were weighed into aluminum sample pans and run under dry nitrogen at 5° C./minute from 25° C. to 250° C. The data were exported to Excel to enable plotting.
The two differ in the appearance of the dehydration mass loss observed for the trihydrate and absent as expected from the anhydrate. Dehydration of the trihydrate started immediately upon start of heating and was complete by approximately 50° C. Complete dehydration below 100° C. is consistent with the assignment of the trihydrate as a channel type hydrate.

[5] = 12-month stability of the anhydrous form at controlled temperature and humidity (HPLC, water content); format: physicochemical; settings: 25° C./60% RH
Procedure: The dihydrochloride salt, anhydrous form of (3S, 4R, 3′R)-6-[4-(4-amino-5-chloro-2-methoxy-benzoylamino)-3-methoxy-piperidin-1-yl]-hexanoic acid 1-azabicyclo[2.2.2]oct-3′-yl ester, was placed in stability chambers with temperature and humidity controlled, for up to 12 months. The temperature was set at 25° C., and the relative humidity was set at 60%. The samples were assayed at time zero, then at 3, 6, 9, and 12 months using an HPLC method. The HPLC conditions were as follows:
Column: Inertsil C8-3, 250 mm length, 3 mm diameter, 5 um particle size
Mobile Phase A: 2000 mL water+3 mL formic acid
Mobile Phase B: 1000 mL methanol+3 mL formic acid
Detection wavelength: 275 nm

[6] = for Resulting Form: slurry, antisolvent Water, ambient, 3 weeks
Procedure: Noncompetitive Slurry Experiments for Polymorph Screening: Noncompetitive slurry experiments were performed as a supplemental polymorph screening method. When suspensions of a polymorphic material are prepared, any polymorphic form with a lower solubility (more thermodynamically stable form) can nucleate. The nucleated forms can convert all the residual solids to the nucleated form via solvent-mediated phase transition. Suspensions of the isolated Form I were prepared by adding excess solid to several different solvent systems. The suspensions were stirred vigorously at ambient temperature for 3 weeks. The remaining solids were collected by vacuum filtration and analyzed by powder X-ray diffraction to determine if any changes in the crystalline form of the solids occurred.

With `COc1cc(N)c(Cl)cc1C(=O)N[C@@H]1CCN(CCCCCC(=O)O[C@H]2CN3CCC2CC3)C[C@@H]1OC` [Compound 1, (3S, 4R, 3′R)-6-[4-(4-amino-5-chloro-2-methoxy-benzoylamino)-3-methoxy-piperidin-1-yl]-hexanoic acid 1-azabicyclo[2.2.2] oct-3′-yl ester di-hydrochloride salt] the “Stability under GMP storage” value [1] was “stable”, the “Physical and chemical stability” value [2] was “both physically and chemically stable” and the “Physical and chemical stability” value ([3]; 25° C. and 97% relative humidity (open)) was “both physically and chemically stable”. For the same compound, the “Physical and chemical stability” value ([3]; temperature elevated to 40° C. or 60° C., 96% relative humidity (open)) was “underwent liquescence”.

For “(3S, 4R, 3′R)-6-[4-(4-amino-5-chloro-2-methoxy-benzoylamino)-3-methoxy-piperidin-1-yl]-hexanoic acid 1-azabicyclo[2.2.2]oct-3′-yl ester”, the “Dehydration mass loss (TGA)” value [4] was “absent”, the “Purity HPLC (Area %)” value ([5]; 0 months) was 99.3 Area % and the “Water Content” value ([5]; 0 months) was 0.45%. The “Purity HPLC (Area %)” value ([5]; 3 months) was 99.2 Area %, the “Water Content” value ([5]; 3 months) was 6.47% and the “Purity HPLC (Area %)” value ([5]; 6 months) was 99.3 Area %. The “Water Content” value ([5]; 6 months) was 8.47%, the “Purity HPLC (Area %)” value ([5]; 9 months) was 99.2 Area % and the “Water Content” value ([5]; 9 months) was 8.20%. The “Purity HPLC (Area %)” value ([5]; 12 months) was 99.3 Area %, the “Water Content” value ([5]; 12 months) was 8.43% and the “Decrease in strength of the active ingredient” value ([5]; due to increase in water content over 6 to 12 months) was “approximately 8%”.

For `COc1cc(N)c(Cl)cc1C(=O)N[C@@H]1CCN(CCCCCC(=O)O[C@H]2CN3CCC2CC3)C[C@@H]1OC` [Form I, (3S, 4R, 3′R)-6-[4-(4-amino-5-chloro-2-methoxy-benzoylamino)-3-methoxy-piperidin-1-yl]-hexanoic acid 1-azabicyclo[2.2.2]oct-3′-yl ester], the “Thermodynamic stability among anhydrous forms” value ([6]; based on the outcome of the slurry experiments) was “most thermodynamically stable anhydrous form”, the “Resulting Form” value ([6]; solvent 1-Propanol) was “Form 1” and the “Resulting Form” value ([6]; solvent Acetonitrile) was “Form 1”. For the same compound, the “Resulting Form” value ([6]; solvent Ethanol) was “Form 1”, the “Resulting Form” value ([6]; solvent Methanol) was “Form 1” and the “Resulting Form” value ([6]; solvent Water) was “Form 1”.
